Measurements published in patent US20250170127A1, “RE-SENSITIZING MULTIDRUG-RESISTANT (MDR) GRAM-NEGATIVE BACTERIA TO COLISTIN USING IONOPHORES” (The Regents of the University of Colorado, a body corporate, priority 2022, published 2025).
≈ marks a conversion by molar mass, not a printed value. Like-named read-outs stand apart in the source and are kept apart here.

Experiments:
E. coli AR-0493 [1] = test: Minimum re-sensitizing concentration (MRC) in the presence of colistin; format: cell-based; settings: in the presence of 2 μg/mL colistin, E. coli AR-0493
Description: These 10 compounds were tested for their MICs and minimum re-sensitizing concentrations (MRCs) in the presence colistin at 2 μg/mL in E. coli AR-0493.
The present inventors further conducted MRC screens of selected compounds from groups 2-5 in AR-0493. Compound were tested against AR-0493 with compound X+2 μg/mL Colistin.
All compounds were tested for their respective minimum resensitizing concentrations (MRCs) for colistin against E. coli. AR0493, a MDR strain from CDC and FDA Antibiotic Resistance Bank. […] For the symmetrical bisanilino series, 7a-p, electron-donating alkyl and alkoxy groups (entries 7a-g, Table 5) at various positions of the phenyl rings were investigated. […] Three asymmetric bisanilino analogs (7q-s, Table 5) were synthesized based on the SARs of the monoanilino analogs 8a-p (vide infra).
(§1) General Methods. MDR strains E. coli AR-0493, AR-0346, and AR-0538, Salmonella Enteritidis AR-0496, Salmonella Typhimurium AR-0635, K. pneumoniae AR-0497, A. baumannii AR-0300 and AR-0310 were all obtained from the CDC & FDA Antibiotic Resistance Isolate Bank. E. coli K-12 was a gift from the Copley lab (Department of MCD Biology, University of Colorado Boulder). HeLa cells were purchased from the ATCC. All bacterial strains were grown on trypticase soy agar supplemented with 5% sheep blood (BAP). Bacteria were then cultured in Luria-Bertani (LB) medium at 35° C. until they achieve the log phase before screening or antimicrobial testing using CAMHB media. MIC, MRC, and checkerboard analyses and mammalian growth inhibition analyses in Hela cells were performed as described previously. More details are given in Supporting information.

E. coli AR-0493 [2] = test: MIC, CLSI broth microdilution, substance alone; format: cell-based
Description: A MDR E. coli strain AR-0493 (a.k.a., ATCC BAA-3170) was obtained from the CDC and FDA Antibiotic Resistance Bank and used for the initial screen. […] Considering the difficulties on the discovery of novel antimicrobial reagents against Gram-negative bacteria, we chose to screen the fragment-based library of 3,200 compounds from TimTec (Tampa, FL). […] The screen used a modified broth microdilution assay.
These 10 compounds were tested for their MICs and minimum re-sensitizing concentrations (MRCs) in the presence colistin at 2 μg/mL in E. coli AR-0493. […] To evaluate their toxicity in mammalian cells, the present inventors treated human epithelial adenocarcinoma HeLa cells with each compound at a wide range of concentrations. […]
as §1

HeLa cells = test: in vitro; format: cell-based, human
Description: These 10 compounds were tested for their MICs and minimum re-sensitizing concentrations (MRCs) in the presence colistin at 2 μg/mL in E. coli AR-0493. […] To evaluate their toxicity in mammalian cells, the present inventors treated human epithelial adenocarcinoma HeLa cells with each compound at a wide range of concentrations.
To evaluate the mammalian toxicity of these analogs, Applicants tested them in cell viability assay using human cervical adenocarcinoma HeLa cells. Their respective half maximal growth inhibition concentration (GI50) was calculated using KaleidaGraph. The selectivity index (SI) for each compound was also calculated as the ratio of their GI50 and MRC. […] Therefore, Applicants selected two bisanilino analogs, 7l and 7m, that bear chlorines at the meta- and para-positions, respectively, of the phenyl groups for further characterization studies. […]. […] Their mammalian toxicities were also evaluated, and SIs calculated. […] Applicants we next explored the scope of analogs 71 and 7m their colistin-potentiating activity in 8 different MDR Gram negative bacteria with diverse genetic backgrounds and resistance mechanisms (Table 7). All strains were obtained from CDC and FDA Antibiotic Resistance Bank. For example, E. coli AR-0493 and K. pneumoniae AR-0497 carry the plasmid that contains the most prevalent mcr-1 gene. E. coli AR-0538, Salmonella Typhimurium AR-0539 and AR-0635 contain the mcr-2, 3, and 4 genes, respectively. These genes encode the phosphoethanolamine transferase, which was originated form the chromosome of A. baumannii, such as AR-0310. […]. A. baumannii AR-0310 appears more sensitive to these two compounds and the MICs of colistin was reduced to 0.25 μg/mL.
as §1

E. coli AR-0349 = test: MICs of a panel of 9 antibiotics with and without compound 3; format: cell-based; settings: for INT (S-R interpretation): CLSI 2021, M100, Ed 31; for MIC: antibiotic alone, multidrug-resistant E. coli; for MIC (+3): in the presence of 1 μg/mL of compound 3
[3] = Escherichia coli, AR0349, read-out: MIC

## Cc1ccccc1Nc1nc2nonc2nc1O [Compound 8b]
E. coli AR-0493 [1]
  MRC (minimum re-sensitizing concentration): 64 µg/mL

## Cc1cccc(Nc2nc3nonc3nc2O)c1 [Compound 8c]
E. coli AR-0493 [1]; listed as 8c (2)
  MRC (minimum re-sensitizing concentration): 8 µg/mL

## Cc1ccc(Nc2nc3nonc3nc2O)cc1 [Compound 8d]
E. coli AR-0493 [1]
  MRC (minimum re-sensitizing concentration): 64 µg/mL

## COc1ccccc1Nc1nc2nonc2nc1O [Compound 8e]
E. coli AR-0493 [2]
  MIC: >64 µg/mL
E. coli AR-0493 [1]
  MRC (minimum re-sensitizing concentration): 4 µg/mL

## COc1cccc(Nc2nc3nonc3nc2O)c1 [Compound 8f]
E. coli AR-0493 [1]
  MRC (minimum re-sensitizing concentration): 16 µg/mL

## COc1ccc(Nc2nc3nonc3nc2O)cc1 [Compound 8g]
E. coli AR-0493 [1]
  MRC (minimum re-sensitizing concentration): >64 µg/mL

## Oc1nc2nonc2nc1Nc1ccccc1F [Compound 8h]
E. coli AR-0493 [1]
  MRC (minimum re-sensitizing concentration): 64 µg/mL

## Oc1nc2nonc2nc1Nc1cccc(F)c1 [Compound 8i]
E. coli AR-0493 [1]
  MRC (minimum re-sensitizing concentration): 64 µg/mL

## Oc1nc2nonc2nc1Nc1ccc(F)cc1 [Compound 8j]
E. coli AR-0493 [1]
  MRC (minimum re-sensitizing concentration): 32 µg/mL

## Oc1nc2nonc2nc1Nc1ccccc1Cl [Compound 8k]
E. coli AR-0493 [1]
  MRC (minimum re-sensitizing concentration): 16 µg/mL

## Oc1nc2nonc2nc1Nc1cccc(Cl)c1 [Compound 8l]
E. coli AR-0493 [1]
  MRC (minimum re-sensitizing concentration): 16 µg/mL

## Oc1nc2nonc2nc1Nc1ccc(Cl)cc1 [Compound 8m]
E. coli AR-0493 [1]
  MRC (minimum re-sensitizing concentration): 32 µg/mL

## Oc1nc2nonc2nc1Nc1ccccc1OC(F)(F)F [Compound 8n]
E. coli AR-0493 [1]
  MRC (minimum re-sensitizing concentration): >64 µg/mL

## Oc1nc2nonc2nc1Nc1cccc(OC(F)(F)F)c1 [Compound 8o]
E. coli AR-0493 [2]
  MIC: >64 µg/mL
E. coli AR-0493 [1]
  MRC (minimum re-sensitizing concentration): 4 µg/mL
HeLa cells
  GI50: 24 µg/mL

## C[C@@H](O)[C@H]1C(=O)N2C(C(=O)O)=C(S[C@@H]3CN[C@H](C(=O)N(C)C)C3)[C@H](C)[C@H]12 [Meropenem]
E. coli AR-0349
  INT (S-R interpretation): S
  MIC (+3): 0.25 µg/mL
E. coli AR-0349; [3]
  MIC: 0.25 µg/mL (≈ 0.652 µM)

## CO[C@H]1/C=C/O[C@@]2(C)Oc3c(C)c(O)c4c(O)c(c(/C=N/N5CCN(C)CC5)c(O)c4c3C2=O)NC(=O)/C(C)=C\C=C\[C@H](C)[C@H](O)[C@@H](C)[C@@H](O)[C@@H](C)[C@H](OC(C)=O)[C@@H]1C [Rifampicin]
E. coli AR-0349
  INT (S-R interpretation): R
  MIC (+3): 16 µg/mL
E. coli AR-0349; [3]
  MIC: 16 µg/mL (≈ 19.4 µM)

## Cc1cccc(Nc2nc3nonc3nc2Cl)c1 [ST024336, reference compound]
E. coli AR-0493 [1]
  MRC (minimum re-sensitizing concentration): 2 µg/mL
E. coli AR-0493 [1]; listed as 1
  MRC (minimum re-sensitizing concentration): > 64 µg/mL
HeLa cells; HeLa cells, 24 hours
  GI50: 10 µg/mL

## CN(C)[C@@H]1C(O)=C(C(N)=O)C(=O)[C@@]2(O)C(O)=C3C(=O)c4c(O)cccc4[C@@](C)(O)[C@H]3C[C@@H]12 [Tetracycline]
E. coli AR-0349
  INT (S-R interpretation): R
  MIC (+3): >64 µg/mL
E. coli AR-0349; [3]
  MIC: > 64 µg/mL

## Gentamicin
E. coli AR-0349
  INT (S-R interpretation): S
  MIC: 0.5 µg/mL
  MIC (+3): 0.5 µg/mL

## Polymyxin B
E. coli AR-0349
  INT (S-R interpretation): R
  MIC: 16 µg/mL
  MIC (+3): 1 µg/mL
E. coli AR-0349; by 1 μg/mL of compound 3
  fold of potentiation: 16 fold
